Assay results as given in EP1124440B1, “USE OF […] FOR FOODSTUFF AND COSMETIC MATERIAL” (Aquacal Limited, priority 1998, dated 2000).
Where two headings read alike, the source gives them in different places.

Legend:
[1] = biscuits cooked for exactly eleven minutes
Description: Four batches of biscuits were made using the following recipe:
(§1) The biscuits were cooked for exactly eleven minutes and then analysed.
(§2) The following parameters were examined: friability, water activity (Aw) and colour.

[2] = water activity; biscuits cooked for exactly eleven minutes
Description: as §1, §2

[3] = biscuits
Description: Colour was measured using LAB values. L. Brightness A. Red B. Yellow
The LAB values of the biscuits were measured using a Minolta colour meter.

[4] = ice-cream; B = Yellow Colour
Description: 3. Colour was measured using a Minolta colour meter and the results were expressed using LAB values: L = Lightness A = Red Colour B = Yellow Colour
4. A further batch of ice-cream was made to assess if calcium addition effected the over-run properties of the ice-cream.

O=C([O-])[O-].[Ca+2] [Calcium Carbonate]
Friability [1]: significantly reduced | Aw [2]: significantly increased | A value ([3]; A = Red): significantly reduced | B value ([3]; B = Yellow): did not effect this value | L value ([3]; L = Brightness): 72.87 | B value [4]: significant difference
